Tests used:
[1] = target: hDAT (Homo sapiens, UniProt Q01959); experiment: effect on efflux of monoamine neurotransmitters, hDAT; assay type: cell-based
[2] = target: hNET (Homo sapiens, UniProt P23975); experiment: effect on efflux of monoamine neurotransmitters, hNET; assay type: cell-based
[3] = system: male Sprague-Dawley rats; experiment: cross maze task; assay type: in vivo, rat
From the text: The experimental design for cross maze task was adapted from Stefani et al, 2003, Behav. Neurosci. 117(4):728-37 (FIG. 7). Ten food-restricted male Sprague-Dawley rats were acclimated to a cross maze whose arms differed by color (red vs blue) or texture (smooth vs rough). A food reward was placed in a food well located at the end of the arm.
Rats were trained to form a mental set by associating a food reward with one feature of one dimension. Rats were subsequently tested on their ability to predict the food reward based on one feature of the alternative dimension.
0.9% saline (1 mg/kg), raclopride (0.05 mg/kg) or SK609 (4 mg/kg) were administered (IP) 30 prior to the experiment, followed by 0.9% saline (1 mg/kg) 15 min prior to beginning the task. Animals were tested to criterion performance of 8 consecutive correct trials.

[4] = system: male Sprague-Dawley rats; experiment: set-shifting task; assay type: in vivo, rat; conditions: IP, SK609 4.0 mg/kg or raclopride 0.05 mg/kg, versus saline
From the text: Sixteen food-restricted male Sprague-Dawley rats were trained to discriminate between a pair of small ceramic pots in order to retrieve a food reward buried within one of the pots. A pair of pots differed from each other along three possible dimensions: scent, digging medium, or material covering the outer surface of the pot.
Simple discriminations (SD) were made between pots differing from each other along one dimension. Compound Discriminations (CD) were made between pots differing along two dimensions. Intra-dimensional Shifts (IDS) were changes made within a previously tested dimension. Extra-Dimensional Shifts (EDS) were changes made to a previously untested dimension.
Animals were tested on their ability to form an attentional set by attending to the dimension that predicts the food reward. Animals were then tested on their ability to make an IDS, EDS, or reversal by responding only to the new salient dimension while suppressing the urge to respond to the previously salient stimulus.
0.9% saline (1 mg/kg), raclopride (0.05 mg/kg) or SK609 (4 mg/kg) were administered (IP) 30 prior to the experiment followed by 0.9% saline (1 mg/kg) 15 min prior to beginning the task. Animals were tested to criterion performance of 5 consecutive correct trials.

[5] = system: male Sprague-Dawley rats; experiment: sustained attention task (vigilance index); assay type: in vivo, rat
Procedure: The vigilance index (VI) of rats treated with SK609 was evaluated using the following protocol. Substantively, eight water restricted male Sprague-Dawley rats were trained in an operant task of sustained attention (McGaughy & Sarter, 1995, Psychopharm. 117:340-357). In response to both signal and non-signal conditions, a water reward was given for correct responses as a positive reinforcer. Rats were first trained by successive approximation to establish lever pressing behavior. Subjects were then trained to criterion performance on the sustained attention task with a 1,000 msec light stimulus duration and then transferred to 15 msec stimulus duration.
Performance was determined based on a rat's calculated VI: VI=(h−f)/[2*(h+f)−(h+f)^2], wherein h (relative hits)=# Hits/(# Hits+# Misses), and f ([…])=# False Alarms/(# False Alarms+# Correct Rejections).
VI of 1 indicates complete vigilance; VI of 0.35 indicates above chance vigilance; and VI of −1 indicates no vigilance.
Testing occurred over a 45 min session of randomly presented signal and non-signal trials. Criterion performance required a rat to achieve greater than 59% signal and non-signal trials, a VI greater than 0.35 and less than 25% omissions per day for three consecutive days. Once subjects stabilized at a baseline, their responses are no longer considered random.
SK609 was administered intraperitoneally (IP) at various doses 15 min prior to beginning the task. Prazosin was administered IP 30 min prior, and SK609 15 min prior to beginning the task. Data are presented as difference scores for VI from an average baseline (FIGS. 4-6).
The operant conditioning chambers contained a house light (2.8 W), a stimulus light (2.8 W), a pair of retractable levers and water reward apparatus. Eight water-restricted male Sprague-Dawley rats were trained in an operant task of sustained attention. In response to both signal and non-signal conditions, a water reward was given for correct responses as a positive reinforcer.
Rats were first trained by successive approximation to establish lever pressing behavior. Subsequently, the rats were trained to criterion performance. Criterion performance required a rat to achieve greater than 59% signal and non-signal trials, a VI greater than 0.35 and less than 25% omissions per day for three consecutive days.
Prazosin (0.25 mg/kg) and raclopride (0.05 mg/kg) were administered (IP) 30 min prior to the experiment followed by either SK609 (4.0 mg/kg) or MPH (2.0 mg/kg) 15 min prior to beginning the task. Performance was determined based on a rat's calculated Vigilance Index (VI). Data are presented as difference scores for VI from an average baseline.

[6] = target: hSERT (Homo sapiens, UniProt P31645); experiment: effect on efflux of monoamine neurotransmitters, hSERT; assay type: cell-based
Sequence of hSERT (P31645 whole entry): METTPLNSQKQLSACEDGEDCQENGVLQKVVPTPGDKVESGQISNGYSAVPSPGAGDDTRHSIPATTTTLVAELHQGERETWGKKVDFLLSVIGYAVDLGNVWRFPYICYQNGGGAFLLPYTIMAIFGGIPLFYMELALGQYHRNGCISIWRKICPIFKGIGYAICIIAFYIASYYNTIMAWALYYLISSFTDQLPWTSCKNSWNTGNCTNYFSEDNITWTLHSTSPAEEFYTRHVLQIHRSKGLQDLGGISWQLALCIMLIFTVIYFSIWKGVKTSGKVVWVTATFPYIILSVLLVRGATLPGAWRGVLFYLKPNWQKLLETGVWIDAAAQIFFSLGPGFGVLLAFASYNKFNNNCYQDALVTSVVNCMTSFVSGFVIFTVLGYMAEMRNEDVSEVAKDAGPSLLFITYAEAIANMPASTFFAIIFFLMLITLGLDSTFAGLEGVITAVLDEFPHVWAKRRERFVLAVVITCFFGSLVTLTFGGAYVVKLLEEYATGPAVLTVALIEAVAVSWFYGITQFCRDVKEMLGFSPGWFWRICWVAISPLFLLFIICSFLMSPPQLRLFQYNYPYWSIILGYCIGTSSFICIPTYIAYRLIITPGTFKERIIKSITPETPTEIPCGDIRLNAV

[7] = efflux measured as percentage of vehicle, FIG. 1
[8] = panel of monoamine neurotransmitter transporters
[9] = SK609 IP 4.0 mg/kg, prazosin IP 0.25 mg/kg or raclopride IP 0.05 mg/kg 30 min prior
[10] = SK609 peak dose 8 mg/kg, FIG. 4

Sequence of hDAT (Q01959 whole entry): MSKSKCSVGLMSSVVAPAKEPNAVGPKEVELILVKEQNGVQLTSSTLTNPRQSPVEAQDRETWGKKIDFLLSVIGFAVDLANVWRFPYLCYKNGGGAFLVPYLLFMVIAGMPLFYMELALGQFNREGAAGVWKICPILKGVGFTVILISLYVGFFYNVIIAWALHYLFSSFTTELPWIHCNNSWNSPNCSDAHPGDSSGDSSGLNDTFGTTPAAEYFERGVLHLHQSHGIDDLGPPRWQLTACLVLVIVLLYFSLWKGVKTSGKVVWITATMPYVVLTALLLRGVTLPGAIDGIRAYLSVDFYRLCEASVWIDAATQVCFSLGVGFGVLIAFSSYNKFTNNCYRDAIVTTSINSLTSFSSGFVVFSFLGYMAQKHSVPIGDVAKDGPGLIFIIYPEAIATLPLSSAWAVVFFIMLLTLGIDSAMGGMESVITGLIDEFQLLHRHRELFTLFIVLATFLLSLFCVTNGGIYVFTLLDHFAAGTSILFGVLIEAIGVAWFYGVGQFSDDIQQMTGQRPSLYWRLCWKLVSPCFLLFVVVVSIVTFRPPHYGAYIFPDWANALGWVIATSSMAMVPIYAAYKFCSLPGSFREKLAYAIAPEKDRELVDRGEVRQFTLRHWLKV
Sequence of hNET (P23975 whole entry): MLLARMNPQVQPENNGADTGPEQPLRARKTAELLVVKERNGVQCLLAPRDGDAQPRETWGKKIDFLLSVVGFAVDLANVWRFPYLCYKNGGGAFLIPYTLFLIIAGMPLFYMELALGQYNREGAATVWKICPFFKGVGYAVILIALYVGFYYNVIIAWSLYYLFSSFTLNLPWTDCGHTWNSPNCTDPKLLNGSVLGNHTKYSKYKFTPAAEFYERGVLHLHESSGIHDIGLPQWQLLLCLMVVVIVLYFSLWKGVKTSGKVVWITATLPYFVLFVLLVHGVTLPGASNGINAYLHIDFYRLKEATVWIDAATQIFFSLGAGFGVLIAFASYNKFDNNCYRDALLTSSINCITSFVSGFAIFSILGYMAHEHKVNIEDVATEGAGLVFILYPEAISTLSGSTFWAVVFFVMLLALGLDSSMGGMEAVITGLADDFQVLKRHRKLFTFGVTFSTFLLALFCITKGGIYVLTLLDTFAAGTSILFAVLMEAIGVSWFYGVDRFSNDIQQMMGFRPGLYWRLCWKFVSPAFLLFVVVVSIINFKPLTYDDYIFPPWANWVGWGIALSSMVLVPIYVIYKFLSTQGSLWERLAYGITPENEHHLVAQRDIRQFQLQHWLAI

| Compound | IC50 [1, 7] [µM] | effect on dopamine transporters (DAT) [1, 8] | IC50 [2, 7] [µM] | effect on NET [2, 8] | cross maze overall performance in 8 trial increments over 80 trials ([3]; SK609 IP 4.0 mg/kg vs saline, p=0.008, FIG. 10B) | cross maze performance (number of trials to reach criterion) ([3]; SK609 IP 4.0 mg/kg, n=5 vs saline n=2, p=0.027, FIG. 10A) | performance in EDS, IDS, CD of set-shifting task [4] | peak dose for vigilance index (VI) performance ([5]; IP, doses 2, 4, 8, 10 and 20 mg/kg, inverted-U dose response) [mg/kg] | % omissions ([5]; SK609 8 mg/kg IP) | sustained attention (VI difference from baseline) ([5]; SK609 8 mg/kg IP, 15 min prior to task) | % omissions ([5]; SK609 high doses IP) | IC50 [6, 7] [µM] | effect on serotonin transporters (SERT) [6, 8] | effect of antagonist pre-treatment on MPH VI performance ([5]; MPH IP 2.0 mg/kg, prazosin IP 0.25 mg/kg, n=8) | effect of antagonist pre-treatment on SK609 VI performance [5, 9] | effect of antagonist pre-treatment on SK609 VI performance [5, 10] |
| --- | --- | --- | --- | --- | --- | --- | --- | --- | --- | --- | --- | --- | --- | --- | --- | --- |
| CC(N)CCc1ccccc1Cl (stereo not shown) [SK609, 4-(2-chlorophenyl)-butan-2-amine] | 8.5 | no effect | 0.29 | selective NET antagonism | improved performance faster and maintained improvements better than saline | improved performance relative to saline | did not differ significantly from saline | 8 | without increasing omissions | enhanced sustained attention | increased the % of omissions | 35.9 | no effect | – | – | – |
| COc1cc2nc(N3CCN(C(=O)c4ccco4)CC3)nc(N)c2cc1OC [prazosin, 2-[4-(2-furoyl)piperazin-1-yl]-6,7-dimethoxyquinazolin-4-amine, reference compound] | – | – | – | – | – | – | – | – | – | – | – | – | – | blocked the effects | blocked the effects | completely abrogated |
| CCN1CCC[C@H]1CNC(=O)c1c(O)c(Cl)cc(Cl)c1OC [raclopride, 3,5-dichloro-N-{[(2S)-1-ethylpyrrolidin-2-yl]methyl}-2-hydroxy-6-methoxybenzamide, reference compound] | – | – | – | – | – | – | impairments in performance relative to controls | – | – | – | – | – | – | – | blocked the effects | moderately |

— patent US10695302B2, “Treatments for attention and cognitive disorders, and for dementia associated with a neurodegenerative disorder” (priority 2013, dated 2020)
